Data: PubChem BioAssay (NCI)
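Method: 48-hour compound exposure of cells in 96-well plates, five concentrations, linear interpolation of endpoints. The concentration for 50% growth inhibition is given as GI50. TGI marks complete inhibition of growth.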

Tests used:
Assay in all cases: inhibition of tumour cell growth, NCI panel, 48 h
SN12C renal = test system: SN12C renal
HT29 colon = test system: HT29 colon
UO-31 renal = test system: UO-31 renal
HCC-2998 colon = test system: HCC-2998 colon
MALME-3M melanoma = test system: MALME-3M melanoma
SK-MEL-5 melanoma = test system: SK-MEL-5 melanoma
SF-295 CNS = test system: SF-295 CNS
UACC-257 melanoma = test system: UACC-257 melanoma
786-0 renal = test system: 786-0 renal

SMILES: CC1CCN(c2cc(-c3cc4ccccc4o3)oc(=O)c2C#N)CC1
- TGI (SN12C renal): > 100 µM
- TGI (HT29 colon): > 100 µM
- TGI (UO-31 renal): > 100 µM
- TGI (HCC-2998 colon): > 100 µM
- TGI (MALME-3M melanoma): > 100 µM
- TGI (SK-MEL-5 melanoma): > 100 µM
- TGI (SF-295 CNS): > 100 µM
- TGI (UACC-257 melanoma): > 100 µM

SMILES: CCOc1cc(/C=C/C(=O)CC(=O)/C=C/c2ccc(OC(=O)CNCCN(CC)CC)c(OCC)c2)ccc1OC(=O)CNCCN(CC)CC
- GI50 (SN12C renal): 2 µM
- TGI (SN12C renal): 6.25 µM
- GI50 (UO-31 renal): 1.7 µM
- TGI (UO-31 renal): 3.82 µM
- GI50 (HCC-2998 colon): 1.65 µM
- TGI (HCC-2998 colon): 3.19 µM
- GI50 (MALME-3M melanoma): 1.91 µM
- TGI (MALME-3M melanoma): 4.12 µM
- GI50 (SK-MEL-5 melanoma): 1.55 µM
- TGI (SK-MEL-5 melanoma): 3.17 µM
- GI50 (SF-295 CNS): 6.26 µM
- TGI (SF-295 CNS): 23.4 µM
- GI50 (UACC-257 melanoma): 1.32 µM
- TGI (UACC-257 melanoma): 3.48 µM

SMILES: CC(=O)Nc1sccc1S(=O)(=O)c1ccc(Cl)cc1
- TGI (SN12C renal): > 100 µM
- TGI (HT29 colon): > 100 µM
- TGI (UO-31 renal): > 100 µM
- TGI (HCC-2998 colon): > 100 µM
- TGI (MALME-3M melanoma): > 100 µM
- TGI (SK-MEL-5 melanoma): > 100 µM
- TGI (SF-295 CNS): > 100 µM
- TGI (786-0 renal): > 100 µM
- TGI (UACC-257 melanoma): > 100 µM

SMILES: N=C(N)c1ccc(N=Nc2c(O)ccc3cc(O)ccc23)cc1
- TGI (HT29 colon): > 100 µM
- TGI (UO-31 renal): > 100 µM
- TGI (HCC-2998 colon): > 100 µM
- TGI (MALME-3M melanoma): > 100 µM
- TGI (SK-MEL-5 melanoma): > 100 µM
- TGI (SF-295 CNS): > 100 µM
- TGI (786-0 renal): > 100 µM
- TGI (UACC-257 melanoma): > 100 µM

SMILES: O=C(/C=C\c1ccc(/C=C/C(=O)Nc2cccc(C3=NCCCN3)c2)cc1)Nc1cccc(C2=NCCCN2)c1
- TGI (SN12C renal): > 100 µM
- TGI (HT29 colon): > 100 µM
- TGI (UO-31 renal): > 100 µM
- TGI (HCC-2998 colon): > 100 µM
- TGI (MALME-3M melanoma): > 100 µM
- TGI (SK-MEL-5 melanoma): > 83.5 µM
- TGI (SF-295 CNS): > 100 µM
- TGI (UACC-257 melanoma): > 100 µM

SMILES: CCN(CC)C(=S)SSCCO
- GI50 (SN12C renal): 17.4 µM
- TGI (SN12C renal): 32.2 µM
- GI50 (HT29 colon): 17 µM
- TGI (HT29 colon): 30.8 µM
- GI50 (UO-31 renal): 15.8 µM
- TGI (UO-31 renal): 32.3 µM
- GI50 (HCC-2998 colon): 18.9 µM
- TGI (HCC-2998 colon): 43.3 µM
- GI50 (MALME-3M melanoma): 17.9 µM
- TGI (MALME-3M melanoma): 35 µM
- GI50 (SK-MEL-5 melanoma): 16.5 µM
- TGI (SK-MEL-5 melanoma): 53.1 µM
- GI50 (SF-295 CNS): 33.5 µM
- TGI (SF-295 CNS): > 100 µM
- GI50 (UACC-257 melanoma): 19.1 µM
- TGI (UACC-257 melanoma): 48.6 µM

SMILES: CCOC(=O)C1=C(C)N(CC(C)C)C2(O)C(OC)CC(=O)C3C(=O)N(c4ccccc4)C(=O)C132 (stereo not drawn)
- TGI (SN12C renal): > 100 µM
- TGI (HT29 colon): 57.1 µM
- TGI (UO-31 renal): 39.2 µM
- TGI (HCC-2998 colon): 53.8 µM
- TGI (MALME-3M melanoma): 96.7 µM
- TGI (SK-MEL-5 melanoma): 43.9 µM
- TGI (SF-295 CNS): > 100 µM
- TGI (786-0 renal): > 100 µM
- TGI (UACC-257 melanoma): > 100 µM

SMILES: COc1cccc(/C=N/[N-]C(N)=O)c1[O-].[OH3+].[Pd+2]
- TGI (SN12C renal): > 100 µM
- TGI (HT29 colon): > 100 µM
- TGI (UO-31 renal): > 100 µM
- TGI (HCC-2998 colon): > 100 µM
- TGI (MALME-3M melanoma): > 100 µM
- TGI (SK-MEL-5 melanoma): > 100 µM
- TGI (SF-295 CNS): > 100 µM
- TGI (786-0 renal): > 100 µM
- TGI (UACC-257 melanoma): > 100 µM

SMILES: Fc1ccc(C(OCCN2CC3CC2CN3)c2ccc(F)cc2)cc1 (stereo not drawn)
- TGI (HCC-2998 colon): 30.4 µM
- TGI (MALME-3M melanoma): 32.3 µM
- TGI (SK-MEL-5 melanoma): 30.9 µM
- TGI (SF-295 CNS): > 100 µM
- TGI (UACC-257 melanoma): 36.6 µM

SMILES: CO/C(=N\N=C(/c1ccccc1)C(F)(F)F)c1ccncc1
- TGI (SN12C renal): > 100 µM
- TGI (HT29 colon): > 100 µM
- TGI (UO-31 renal): > 100 µM
- TGI (MALME-3M melanoma): > 100 µM
- TGI (SK-MEL-5 melanoma): 57 µM
- TGI (SF-295 CNS): > 100 µM

SMILES: O=C(O)Cc1ccc(Oc2nc3ccccc3nc2-c2ccccc2)cc1
- TGI (SN12C renal): > 100 µM
- TGI (HT29 colon): > 100 µM
- TGI (UO-31 renal): > 100 µM
- TGI (HCC-2998 colon): 99.5 µM
- TGI (MALME-3M melanoma): > 100 µM
- TGI (SK-MEL-5 melanoma): > 100 µM
- TGI (SF-295 CNS): > 100 µM
- TGI (786-0 renal): > 100 µM
- TGI (UACC-257 melanoma): > 100 µM

SMILES: Clc1cccc(C2SCc3nc4ccccc4n32)c1 (stereo not drawn)
- TGI (SN12C renal): 28.6 µM
- TGI (HT29 colon): 67.2 µM
- TGI (MALME-3M melanoma): 62.1 µM
- TGI (SF-295 CNS): > 100 µM

SMILES: Clc1ccc(Cn2cc(/C=N/n3cnnc3)c3ccccc32)cc1
- TGI (SN12C renal): > 100 µM
- TGI (HT29 colon): > 100 µM
- TGI (UO-31 renal): > 100 µM
- TGI (HCC-2998 colon): 31.4 µM
- TGI (MALME-3M melanoma): > 100 µM
- TGI (SK-MEL-5 melanoma): > 100 µM
- TGI (SF-295 CNS): > 100 µM
- TGI (786-0 renal): > 100 µM
- TGI (UACC-257 melanoma): > 100 µM

SMILES: CO[C@]12C[C@@H](CNC(=O)c3cc(Br)c[nH]3)O[C@H]1NC(=O)N2
- TGI (SN12C renal): > 100 µM
- TGI (HT29 colon): > 100 µM
- TGI (UO-31 renal): > 100 µM
- TGI (HCC-2998 colon): > 100 µM
- TGI (MALME-3M melanoma): > 100 µM
- TGI (SK-MEL-5 melanoma): > 100 µM
- TGI (SF-295 CNS): > 100 µM
- TGI (786-0 renal): > 100 µM
- TGI (UACC-257 melanoma): > 100 µM

SMILES: Nc1c(C(=O)c2ccccc2)nnc2ccccc12
- TGI (HT29 colon): > 100 µM
- TGI (UO-31 renal): > 100 µM
- TGI (HCC-2998 colon): 54.4 µM
- TGI (MALME-3M melanoma): 79.1 µM
- TGI (SK-MEL-5 melanoma): 32.7 µM
- TGI (786-0 renal): > 100 µM
- TGI (UACC-257 melanoma): 90.8 µM

SMILES: CC1=NN(C(=O)c2ccc(C)cc2)C(=O)C1N=Nc1ccccc1C(=O)O (stereo not drawn)
- TGI (SN12C renal): > 100 µM
- TGI (HT29 colon): > 100 µM
- TGI (UO-31 renal): > 100 µM
- TGI (HCC-2998 colon): > 100 µM
- TGI (MALME-3M melanoma): > 100 µM
- TGI (SK-MEL-5 melanoma): > 100 µM
- TGI (SF-295 CNS): > 100 µM
- TGI (UACC-257 melanoma): > 100 µM

SMILES: CCN(CC)C(=S)S
- TGI (SN12C renal): > 100 µM
- TGI (UO-31 renal): > 100 µM
- TGI (HCC-2998 colon): > 100 µM
- TGI (MALME-3M melanoma): 60.4 µM
- TGI (SK-MEL-5 melanoma): > 43.6 µM
- TGI (SF-295 CNS): > 100 µM
- TGI (786-0 renal): > 100 µM
- TGI (UACC-257 melanoma): 65.1 µM

SMILES: Clc1ccc(-c2nnc(-c3nsc4ccccc34)o2)cc1
- TGI (SN12C renal): > 100 µM
- TGI (HT29 colon): > 100 µM
- TGI (UO-31 renal): 47.5 µM
- TGI (HCC-2998 colon): 93.7 µM
- TGI (SK-MEL-5 melanoma): > 100 µM
- TGI (UACC-257 melanoma): > 100 µM

SMILES: CCOC(=O)[C@H]1Nc2c(cccc2[N+](=O)[O-])C2c3ccccc3CC21 (stereo partly drawn)
- TGI (SN12C renal): > 100 µM
- TGI (HT29 colon): 74.9 µM
- TGI (UO-31 renal): > 100 µM
- TGI (HCC-2998 colon): > 100 µM
- TGI (MALME-3M melanoma): > 100 µM
- TGI (SK-MEL-5 melanoma): > 100 µM
- TGI (SF-295 CNS): > 100 µM
- TGI (UACC-257 melanoma): 98.4 µM

SMILES: N/C(=N\N=C/c1cc([N+](=O)[O-])cc([N+](=O)[O-])c1O)NO
- TGI (SN12C renal): > 100 µM
- TGI (HT29 colon): > 100 µM
- TGI (UO-31 renal): > 100 µM
- TGI (HCC-2998 colon): > 100 µM
- TGI (MALME-3M melanoma): > 100 µM
- TGI (SK-MEL-5 melanoma): > 38.4 µM
- TGI (SF-295 CNS): > 100 µM
- TGI (UACC-257 melanoma): > 100 µM
